Source: patent US7902181B2, “Compounds 010” (AstraZeneca AB, priority 2007, dated 2011)
Counter-ions that a name gives are not always drawn.

What follows are compounds tested against Recombinant Human (rh) DPP1 (Homo sapiens, UniProt P53634) (assay: Fluorescence Assay for Recombinant Human (rh) DPP1). Details: rhDPP1; substrate H-Gly-Arg-AMC; pH5.0; 30 min pre-incubation, 60 min reaction at 22° C.; highest concentration 10 μM; read-out: DPP1 activity, pIC50 (converted).
Format: biochemical
Protocol: Fluorescence Assay for Recombinant Human (rh) DPP1
The activity of DPP1 was determined by measuring the enzymatic release of aminomethyl coumarin (AMC) from the peptide substrate (H-Gly-Arg-AMC), which leads to an increase in fluorescence intensity at λex=350 nm and λem=450 nm. The assay was carried out in black 384 well plates in a final volume of 50 μl at 22° C. The assay conditions contained the following: 25 mM piperazine buffer pH5.0; 50 mM NaCl, 5 mM DTT; 0.01% (v/v) Triton X-100; 100 μM H-Gly-Arg-AMC and rhDPP1 ([…]). Potential inhibitors were made up in DMSO and then diluted in the assay to give a final concentration of 1% (v/v) DMSO. A 12-point half-log dilution of the inhibitors (highest concentration 10 μM) was tested and the pIC50 determined using a 4-parameter logistic equation in a non-linear curve fitting routine. A standard DPP1 inhibitor (vinyl sulfone, see below) was used as a positive control in the assay. Routinely, inhibitors were pre-incubated with rhDPP1 for 30 min prior to the addition of the peptide substrate to start the reaction for a further 60 min at 22° C. After that the plates were immediately read in a fluorescence plate reader using the above emission and excitation wavelengths [modified from Kam, C M, Gotz, M G, Koot, G, McGuire, M J, Thiele, D L, Hudig, D & Powers, J C (2004). Arch Biochem Biophys, 427, 123-134 & McGuire, M J, Lipsky, P E & Thiele, D L (1992). Arch Biochem Biophys, 295, 280-288].

Sequence of Recombinant Human (rh) DPP1 (P53634 25-463): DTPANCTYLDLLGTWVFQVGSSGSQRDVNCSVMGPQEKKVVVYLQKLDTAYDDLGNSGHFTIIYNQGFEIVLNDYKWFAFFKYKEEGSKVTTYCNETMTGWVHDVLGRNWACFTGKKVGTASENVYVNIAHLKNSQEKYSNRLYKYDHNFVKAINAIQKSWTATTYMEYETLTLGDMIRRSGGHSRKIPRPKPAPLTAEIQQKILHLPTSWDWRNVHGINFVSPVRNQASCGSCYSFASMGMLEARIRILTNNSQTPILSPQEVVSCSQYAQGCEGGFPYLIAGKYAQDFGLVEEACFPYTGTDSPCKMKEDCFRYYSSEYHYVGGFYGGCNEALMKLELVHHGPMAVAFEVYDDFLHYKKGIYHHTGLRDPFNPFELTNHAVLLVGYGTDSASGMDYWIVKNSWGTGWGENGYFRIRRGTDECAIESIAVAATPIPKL

SMILES	IC50 [µM]
N#C[C@H](Cc1ccc(-c2ccc(C(N)=O)cc2)cc1)NC(=O)[C@@H]1CCCCN1 [Example 5, (S)-N-((S)-2-(4′-Carbamoylbiphenyl-4-yl)-1-cyanoethyl)piperidine-2-carboxamide Trifluoroacetate]	0.0631
N#C[C@H](Cc1ccc(-c2cccc(C(=O)O)c2)cc1)NC(=O)[C@@H]1CCCCN1 [Example 12, 4′-((S)-2-Cyano-2-((S)-piperidine-2-carboxamido)ethyl)biphenyl-3-carboxylic Acid Trifluoroacetate]	0.398
N#C[C@H](Cc1ccc(-c2ccc(CN3CCOCC3)cc2)cc1)NC(=O)[C@@H]1CCCCN1 [Example 9, (S)-N-((S)-1-Cyano-2-(4′-(morpholinomethyl)biphenyl-4-yl)ethyl)piperidine-2-carboxamide Trifluoroacetate]	0.158
N#C[C@H](Cc1ccc(-c2ccc(CN)cc2)cc1)NC(=O)[C@@H]1CCCCN1 [Example 36, (2S)-N-[(1S)-2-[4-[4-(Aminomethyl)phenyl]phenyl]-1-cyano-ethyl]piperidine-2-carboxamide trifluoroacetate]	0.251
COc1ccc(-c2ccc(C[C@@H](C#N)NC(=O)[C@@H]3CCCCN3)cc2)cc1F [Example 31, (2S)-N-[(1S)-1-Cyano-2-[4-(3-fluoro-4-methoxy-phenyl)phenyl]ethyl]pipe-ridine-2-carboxamide trifluoroacetate]	0.158
N#C[C@H](Cc1ccc(-c2ccccc2)cc1)NC(=O)[C@@H]1C[C@@H](O)CN1 [Example 17, (2S,4R)-N-((S)-2-(Biphenyl-4-yl)-1-cyanoethyl)-4-hydroxypyrrolidine-2-carboxamide]	0.2
Cc1cscc1-c1ccc(C[C@@H](C#N)NC(=O)[C@@H]2CCCCN2)cc1 [Example 38, (2S)-N-[(1S)-1-Cyano-2-[4-(4-methylthiophen-3-yl)phenyl]ethyl]piperidine-2-carboxamide trifluoroacetate]	0.316
Cc1cc(O)ccc1-c1ccc(C[C@@H](C#N)NC(=O)[C@@H]2CCCCN2)cc1 [Example 11, (S)-N-((S)-1-Cyano-2-(4′-hydroxy-2′-methylbiphenyl-4-yl)ethyl)piperidine-2-carboxamide Trifluoroacetate]	0.316
COc1ccc(-c2ccc(C[C@@H](C#N)NC(=O)[C@@H]3CCCCN3)cc2)c(OC)c1 [Example 33, (2S)-N-[(1S)-1-Cyano-2-[4-(2,4-dimethoxyphenyl)phenyl]ethyl]piperidine-2-carboxamide trifluoroacetate]	0.2
N#C[C@H](Cc1ccc(-c2cccc(C(N)=O)c2)cc1)NC(=O)[C@@H]1CCCCN1 [Example 34, (2S)-N-[(1S)-2-[4-(3-Carbamoylphenyl)phenyl]-1-cyano-ethyl]piperidine-2-carboxamide trifluoroacetate]	0.2
N#C[C@H](Cc1ccc(-c2ccc3c(c2)OCCO3)cc1)NC(=O)[C@@H]1CCCCN1 [Example 35, (2S)-N-[(1S)-1-Cyano-2-[4-(2,5-dioxabicyclo[4.4.0]deca-7,9,11-trien-8-yl)phenyl]ethyl]piperidine-2-carboxamide trifluoroacetate]	0.251
N#C[C@H](Cc1ccc(-c2cnoc2)cc1)NC(=O)[C@@H]1CCCCN1 [Example 21, (2S)-N-[(1S)-1-Cyano-2-(4-1,2-oxazol-4-ylphenyl)ethyl]piperidine-2-carboxamide trifluoroacetate]	0.0501
N#Cc1ccc(-c2ccc(C[C@@H](C#N)NC(=O)[C@@H]3CCCCN3)cc2)cc1 [Example 24, (2S)-N-[(1S)-1-Cyano-2-[4-(4-cyanophenyl)phenyl]ethyl]piperidine-2-carboxamide trifluoroacetate]	0.0158
CSc1cccc(-c2ccc(C[C@@H](C#N)NC(=O)[C@@H]3CCCCN3)cc2)c1 [Example 22, (2S)-N-[(1S)-1-Cyano-2-[4-(3-methylsulfanylphenyl)phe-nyl]ethyl]piperidine-2-carboxamide trifluoroacetate]	0.0631

Results, then the compound that gave them:

IC50 [µM]	SMILES
0.0316	N#Cc1ccc(-c2ccc(C[C@@H](C#N)NC(=O)[C@@H]3CCCCN3)cc2)cn1 [Example 53, (S)-N-((S)-1-Cyano-2-(4-(6-cyanopyridin-3-yl)phenyl)ethyl)piperidine-2-carboxamide]
0.631	CCS(=O)(=O)c1ccc(-c2ccc(C[C@@H](C#N)NC(=O)[C@@H]3CCCCN3)cc2)c(C)c1 [Example 43, (2S)-N-[(1S)-1-Cyano-2-[4-(4-ethylsulfonyl-2-methyl-phenyl)phenyl]ethyl]pipe-ridine-2-carboxamide trifluoroacetate]
0.316	N#C[C@H](Cc1ccc(-c2ccccc2O)nc1)NC(=O)[C@@H]1CCCCN1 [Example 79, (S)-N-((S)-1-Cyano-2-(6-(2-hydroxyphenyl)pyridin-3-yl)ethyl)piperidine-2-carboxamide]
0.0316	N#Cc1ccc(-c2ccc(C[C@@H](C#N)NC(=O)[C@@H]3CCCCN3)cn2)cc1 [Example 77, (S)-N-((S)-1-Cyano-2-(6-(4-cyanophenyl)pyridin-3-yl)ethyl)piperidine-2-carboxamide Trifluoroacetate]
0.00501	N#C[C@H](Cc1ccc(-c2ccc(C(F)(F)F)cc2)cc1)NC(=O)[C@@H]1CCCCN1 [Example 82, (S)-N-((S)-1-Cyano-2-(4′-(trifluoromethyl)biphenyl-4-yl)ethyl)piperidine-2-carboxamide Trifluoroacetate]
0.01	CS(=O)(=O)c1ccc(-c2ccc(C[C@@H](C#N)NC(=O)[C@@H]3CCCCN3)cc2)cc1C#N [Example 64, (S)-N-((S)-1-Cyano-2-(3′-cyano-4′-(methylsulfonyl)biphenyl-4-yl)ethyl)piperidine-2-carboxamide]
0.158	N#Cc1ccc(-c2ccc([C@H]3C[C@@]3(C#N)NC(=O)[C@@H]3CCCCN3)cc2)cc1 [Example 103, (S)-N-((1R,2R)-1-Cyano-2-(4′-cyanobiphenyl-4-yl)cyclopropyl)piperidine-2-carboxamide Trifluoroacetate]
0.0631	N#C[C@H](Cc1ccc(-c2ccc3c(c2)sc(=O)n3CCO)cc1)NC(=O)[C@@H]1CCCCN1 [Example 99, (S)-N-((S)-1-Cyano-2-(4-(3-(2-hydroxyethyl)-2-oxo-2,3-dihydrobenzo[d]thiazol-6-yl)phenyl)ethyl)piperidine-2-carboxamide]
0.0631	N#C[C@H](Cc1ccc(-c2cccc(S(=O)(=O)N3CCCC3)c2)cc1)NC(=O)[C@@H]1CCCCN1 [Example 88, (S)-N-((S)-1-Cyano-2-(3′-(pyrrolidin-1-ylsulfonyl)biphenyl-4-yl)ethyl)piperidine-2-carboxamide Trifluoroacetate]
0.158	N#C[C@H](Cc1ccc(-c2ccc3c(c2)CCNC3)cc1)NC(=O)[C@@H]1CCCCN1 [Example 110, (S)-N-((S)-1-Cyano-2-(4-(1,2,3,4-tetrahydroisoquinolin-6-yl)phenyl)ethyl)piperidine-2-carboxamide Ditrifluoroacetate]
0.794	CN(C)C(=O)c1cc(Cl)cc(-c2ccc(CC(C#N)NC(=O)[C@@H]3CCCCN3)cn2)c1 (mixture of isomers) [Example 81, (S)-N-((S)-2-(6-(3-Chloro-5-(dimethylcarbamoyl)phenyl)pyridin-3-yl)-1-cyanoethyl)piperidine-2-carboxamide Trifluoroacetate]
0.0158	COCCn1c(=O)oc2ccc(-c3ccc(C[C@@H](C#N)NC(=O)[C@@H]4CCCCN4)cc3)cc21 [Example 97, (S)-N-((S)-1-Cyano-2-(4-(3-(2-methoxyethyl)-2-oxo-2,3-dihydrobenzo[d]-oxazol-5-yl)phenyl)ethyl)piperidine-2-carboxamide]
0.2	N#C[C@H](Cc1ccc(-c2cccc(C(=O)N3CCCCC3)c2)cc1)NC(=O)[C@@H]1CCCCN1 [Example 83, (S)-N-((S)-1-Cyano-2-(3′-(piperidine-1-carbonyl)biphenyl-4-yl)ethyl)piperidine-2-carboxamide Trifluoroacetate]
0.0126	N#CC1CCN(S(=O)(=O)c2ccc(-c3ccc(C[C@@H](C#N)NC(=O)[C@@H]4CCCCN4)cc3)cc2)CC1 [Example 91, (S)-N-((S)-1-Cyano-2-(4′-(4-cyanopiperidin-1-ylsulfonyl)biphenyl-4-yl)ethyl)piperidine-2-carboxamide Trifluoroacetate]
0.00316	CSc1cc(-c2ccc(C[C@@H](C#N)NC(=O)[C@@H]3CCCCN3)cc2)ccc1C#N [Example 57, (S)-N-((S)-1-Cyano-2-(4′-cyano-3′-(methylthio)biphenyl-4-yl)ethyl)-piperidine-2-carboxamide]
0.501	CN(C)C(=O)c1cccc(-c2ccc(C[C@@H](C#N)NC(=O)[C@@H]3CCCCN3)cc2)c1 [Example 42, (2S)-N-[(1S)-1-Cyano-2-[4-[3-(dimethylcarbamoyl)phe-nyl]phenyl]ethyl]piperi-dine-2-carboxamide trifluoroacetate]
0.0126	CS(=O)(=O)c1ccc(-c2ccc(C[C@@H](C#N)NC(=O)[C@@H]3CCCCN3)cc2)cc1 [Example 106, (S)-N-((S)-1-Cyano-2-(4′-(methylsulfonyl)biphenyl-4-yl)ethyl)piperidine-2-carboxamide]
